Data: patent US20050267156A1, “Broadspectrum 2-amino-benzothiazole sulfonamide hiv protease inhibitors” (Tibotec Pharmaceuticals Ltd., priority 2002, published 2005)
Where two headings read alike, the source gives them in different places.

Legend:
[1] = Pharmacokinetics in rats; type: in vivo, Whistar rats; conditions: rat
Procedure: (§1) The pharmacokinetic properties of some compounds of formula (I) were tested on rats and dogs. The compounds were evaluated in Whistar rats, source Iffa Credo, weighing approximately 350 g. Before dosing the animals were fasted overnight (approximately 12 h fasting period). The compounds were dissolved in DMSO or PEG 400. The results represented in the table concern the results from the oral or intra-peritoneal dosing of the compounds. Blood was sampled at 30 min, 1 h, 2 h, 3 h, no pre-dose sample was taken. The amount of the compound in the biological sample was determined using LC-MS. In the table below “or” means oral dosing, “ip” means intraperitoneal dosing, “mpk” means mg per kilogram.

[2] = Pharmacokinetics in dogs; type: in vivo; conditions: or, dog
Procedure: as §1

[3] = Toxicity on mock-infected cells (MTT); type: cell-based; conditions: human
[4] = tested on: mutant HIV strain C; experiment: microbe, parasite or virus in culture; type: cell-based; conditions: for EC50: Human immunodeficiency virus 1, MT4, read-out: pEC50 Strain C, mutant HIV strain C, MT4 cells (converted)
[5] = tested on: mutant HIV strain D; experiment: microbe, parasite or virus in culture; type: cell-based; conditions: for EC50: Human immunodeficiency virus 1, MT4, read-out: pEC50 Strain D, mutant HIV strain D, MT4 cells (converted)
[6] = tested on: mutant HIV strain E; experiment: microbe, parasite or virus in culture; type: cell-based; conditions: for EC50: Human immunodeficiency virus 1, MT4, read-out: pEC50 Strain E, mutant HIV strain E, MT4 cells (converted)
[7] = tested on: mutant HIV strain B; experiment: microbe, parasite or virus in culture; type: cell-based
[8] = tested on: mutant HIV strain A; experiment: microbe, parasite or virus in culture; type: cell-based; conditions: for EC50: Human immunodeficiency virus 1, MT4, read-out: pEC50 Strain A, mutant HIV strain A, MT4 cells (converted)
[9] = tested on: HIV-1 strain LAI; experiment: Cellular anti-HIV assay (MT4/MTT), wild type; type: cell-based; conditions: Human immunodeficiency virus 1; wild type HIV-1 strain LAI, MT4 cells; read-out: WT (pEC50) (converted)
[10] = tested on: mutant HIV protease viruses; experiment: Panel of more than 20 mutant proteases; type: cell-based
[11] = tested on: mutant HIV strain F; experiment: microbe, parasite or virus in culture; type: cell-based; conditions: Human immunodeficiency virus 1, MT4, read-out: pEC50 Strain F, mutant HIV strain F, MT4 cells (converted)
[12] = FR=EC50 (mutant strain)/EC50 (HIV-1 strain LAI)

Structure (SMILES): CNc1nc2ccc(S(=O)(=O)N(CC(C)C)C[C@@H](O)[C@H](Cc3ccccc3)NC(=O)O[C@H]3CCOC3)cc2s1 [Compound 21, {(1S,2R)-1-benzyl-2-hydroxy-3-[isobutyl-(2-methylamino-benzothiazole-6-sulfonyl)-amino]-propyl}-carbamic acid(S)(tetrahydro-furan-3-yl)ester]
- Cmax ([1]; ip, DMSO, results normalized to 10 mpk): 1763 ng/mL
- Cmax ([1]; or, DMSO, results normalized to 10 mpk): 1139 ng/mL
- Cmax ([1]; or, PEG400, results normalized to 10 mpk): 1315 ng/mL
- Cmax ([2]; PEG400 - 2 animals, results normalized to 10 mpk): 61 ng/mL
- Cmax ([2]; PEG400 - 4 animals, results normalized to 10 mpk): 184 ng/mL

Structure (SMILES): CC(C)CN(C[C@@H](O)[C@H](Cc1ccccc1)NC(=O)OC1COC2OCCC12)S(=O)(=O)c1ccc2nc(N)sc2c1 (stereo partly drawn) [Compound 1, {(1S,2R)-3-[(2-amino-benzothiazole-6-sulfonyl)-isobutyl-amino]-1-benzyl-2-hydroxypropyl}-carbamic acid hexahydro-furo[2,3-b]furan-3-yl ester]
- CC50 at 5 days [3]: 69200 nM
- fold resistance Strain C [4, 12]: 0.8
- EC50 [4]: 4.17 nM
- fold resistance Strain D [5, 12]: 0.4
- EC50 [5]: 2.24 nM
- fold resistance Strain E [6, 12]: 0.6
- EC50 [6]: 3.09 nM
- fold resistance Strain B [7, 12]: 0.7
- EC50 ([7]; Human immunodeficiency virus 1, MT4, read-out: pEC50 Strain B, mutant HIV strain B, MT4 cells (converted)): 3.63 nM
- fold resistance Strain A [8, 12]: 0.5
- EC50 [8]: 2.95 nM
- EC50 [9]: 5.5 nM
- IC50 ([10]; Human immunodeficiency virus 1, read-out: pIC50 for the most resistant mutant (converted)): 7.59 nM
- IC50 ([10]; Human immunodeficiency virus 1, read-out: pIC50 for the most sensitive mutant (converted)): 0.741 nM

Structure (SMILES): CNc1nc2ccc(S(=O)(=O)N(CC(C)C)C[C@@H](O)[C@H](Cc3ccccc3)NC(=O)OCc3cncs3)cc2s1 [Compound 18, {(1S,2R)-1-benzyl-2-hydroxy-3-[isobutyl-(2-methylamino-benzothiazole-6-sulfonyl)-amino]-propyl}-carbamic acid thiazol-5-ylmethyl ester]
- CC50 at 5 days [3]: 85100 nM
- Cmax ([1]; Whistar, blood, ip, 10 mpk, ip, DMSO, results normalized to 10 mpk, read-out: Cmax): 1140 ng/mL
- Cmax ([1]; Whistar, blood, po, 10 mpk, or, DMSO, results normalized to 10 mpk, read-out: Cmax): 396 ng/mL
- Cmax ([1]; Whistar, blood, po, 10 mpk, or, PEG400, results normalized to 10 mpk, read-out: Cmax): 668 ng/mL
- EC50 [11]: 148 nM
- EC50 [4]: 7.41 nM
- EC50 [5]: 21.4 nM
- EC50 [6]: 9.12 nM
- pEC50 Strain B ([7]; mutant HIV strain B, MT4 cells): 8.21
- EC50 [8]: 30.9 nM
- EC50 [9]: 1.91 nM
- Cmax ([2]; blood, po, 10 mpk, DMSO, results normalized to 10 mpk, read-out: Cmax): 15 ng/mL
- Cmax ([2]; blood, po, 10 mpk, PEG400, results normalized to 10 mpk, read-out: Cmax): 42 ng/mL
